Source: patent US10800791B2, “Triazole ACC inhibitors and uses thereof” (Gilead Apollo, LLC, priority 2015, dated 2020)
Values after ≈ are worked out from the molar mass of the structure shown. Where two headings read alike, the source gives them in different places.

Key:
[1] = biological target: human (hACC2) (Homo sapiens, UniProt O00763); assay: In vitro ACC inhibition assay (ADP-Glo), hACC2; format: biochemical; details: 5 nM ACC2, 20 μM ATP, 20 μM acetyl-CoA
Description: The detailed procedure is as follows. […] 10 μL ADP glo reagent was added. […] 20 μL kinase detection reagent was added.

[2] = tested on: C. krusei; assay: Antifungal Activity Assay (broth microtiter MIC), C. krusei; format: cell-based, Candida krusei; details: Pichia kudriavzevii, ATCC6258, 48 h
In short: (§1)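 Colonies from 24 h Sabouraud dextrose agar plates (35° C) are suspended in RPMI 1640+MOPS and diluted to give 2.5×10^3 CFU/mL in the wells. Plates are set up per CLSI M27-A3. Visual MIC is recorded at 48 h.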

[3] = tested on: C. parapsilosis; assay: Antifungal Activity Assay (broth microtiter MIC), C. parapsilosis; format: cell-based, Candida parapsilosis; details: Lodderomyces parapsilosis, ATCC22019, 48 h
In short: as §1

[4] = tested on: Collectotrichum graminicola (Cg); assay: Growth inhibition assay of fungal pathogens, Cg; format: cell-based; details: 48 h
In short: (§2)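 Spores from sub-cultured plates were diluted in 17% V8 liquid medium and exposed to compound from DMSO stocks at final concentrations of 50, 10 and 2 ppm or 2, 0.4 and 0.08 ppm. OD600 and visual ratings at 48 h were compared with the 2% DMSO control to give percent growth inhibition.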

[5] = tested on: Fusarium moniliforme (Fm); assay: Growth inhibition assay of fungal pathogens, Fm; format: cell-based; details: for IC90: Fusarium verticillioides, 48 h, read-out: Concentration at 90% Inhibition Fm
In short: as §2

[6] = tested on: Fusarium virguliforme (Fv); assay: Growth inhibition assay of fungal pathogens, Fv; format: cell-based; details: 48 h
In short: as §2

[7] = tested on: Phytophthora capsici (Pc); assay: Growth inhibition assay of fungal pathogens, Pc; format: cell-based; details: 48 h
In short: as §2

[8] = tested on: Rhizoctonia solani (Rs); assay: Growth inhibition assay of fungal pathogens, Rs; format: cell-based; details: 48 h
[9] = tested on: Septoria tritici (St); assay: Growth inhibition assay of fungal pathogens, St; format: cell-based; details: Zymoseptoria tritici, 48 h
In short: as §2

[10] = biological target: fungal (fACC2) (UniProt Q00955); details: read-out: fACC2 (in vitro ACC2 Inhibition Assay, IC50), ADP-Glo, 5 nM ACC2, 20 μM ATP, 20 μM acetyl-CoA
[11] = Table 3a, ATCC 6258, 3 replicates, MIC recorded at 48 h, read-out: MIC, C. krusei ATCC 6258
[12] = Table 3b (additional results), ATCC 6258, 3 replicates, MIC recorded at 48 h, read-out: MIC, C. krusei ATCC 6258
[13] = Table 3a, ATCC 22019, 3 replicates, MIC recorded at 48 h, read-out: MIC, C. parapsilosis ATCC 22019
[14] = Table 3b (additional results), ATCC 22019, 3 replicates, MIC recorded at 48 h, read-out: MIC, C. parapsilosis ATCC 22019
[15] = Collectotrichum graminicola, growth inhibition at 48 hours vs 2% DMSO control, read-out: Concentration at 90% Inhibition Cg
[16] = Collectotrichum graminicola, growth inhibition vs 2% DMSO control at 48 hours, read-out: Concentration at 90% Inhibition Cg
[17] = Fusarium moniliforme, growth inhibition at 48 hours vs 2% DMSO control
[18] = Fusarium moniliforme, growth inhibition vs 2% DMSO control at 48 hours
[19] = growth inhibition at 48 hours vs 2% DMSO control, read-out: Concentration at 90% Inhibition Fv
[20] = growth inhibition vs 2% DMSO control at 48 hours, read-out: Concentration at 90% Inhibition Fv
[21] = growth inhibition at 48 hours vs 2% DMSO control, read-out: Concentration at 90% Inhibition Pc
[22] = growth inhibition vs 2% DMSO control at 48 hours, read-out: Concentration at 90% Inhibition Pc
[23] = mycelial plugs, growth inhibition at 48 hours vs 2% DMSO control, read-out: Concentration at 90% Inhibition Rs
[24] = mycelial plugs, growth inhibition vs 2% DMSO control at 48 hours, read-out: Concentration at 90% Inhibition Rs
[25] = Septoria tritici, growth inhibition at 48 hours vs 2% DMSO control, read-out: Concentration at 90% Inhibition St
[26] = Septoria tritici, growth inhibition vs 2% DMSO control at 48 hours, read-out: Concentration at 90% Inhibition St
[27] = read-out: MIC, C. krusei ATCC 6258, Table 3b (additional results), 3 replicates, MIC recorded at 48 h
[28] = read-out: MIC, C. parapsilosis ATCC 22019, Table 3b (additional results), 3 replicates, MIC recorded at 48 h
[29] = read-out: Concentration at 90% Inhibition Cg, Collectotrichum graminicola, growth inhibition at 48 hours vs 2% DMSO control
[30] = read-out: Concentration at 90% Inhibition Cg, Collectotrichum graminicola, growth inhibition vs 2% DMSO control at 48 hours
[31] = read-out: Concentration at 90% Inhibition Fv, Fusarium virguliforme, growth inhibition at 48 hours vs 2% DMSO control
[32] = read-out: Concentration at 90% Inhibition Fv, Fusarium virguliforme, growth inhibition vs 2% DMSO control at 48 hours
[33] = read-out: Concentration at 90% Inhibition Pc, Phytophthora capsici, growth inhibition at 48 hours vs 2% DMSO control
[34] = read-out: Concentration at 90% Inhibition Pc, Phytophthora capsici, growth inhibition vs 2% DMSO control at 48 hours
[35] = read-out: Concentration at 90% Inhibition Rs, Rhizoctonia solani, mycelial plugs, growth inhibition at 48 hours vs 2% DMSO control
[36] = read-out: Concentration at 90% Inhibition Rs, Rhizoctonia solani, mycelial plugs, growth inhibition vs 2% DMSO control at 48 hours
[37] = read-out: Concentration at 90% Inhibition St, Septoria tritici, growth inhibition at 48 hours vs 2% DMSO control
[38] = read-out: Concentration at 90% Inhibition St, Septoria tritici, growth inhibition vs 2% DMSO control at 48 hours
[39] = read-out: MIC, C. krusei ATCC 6258, Table 3a, 3 replicates, MIC recorded at 48 h
[40] = read-out: MIC, C. parapsilosis ATCC 22019, Table 3a, 3 replicates, MIC recorded at 48 h

Chain of human (hACC2) (O00763 whole entry): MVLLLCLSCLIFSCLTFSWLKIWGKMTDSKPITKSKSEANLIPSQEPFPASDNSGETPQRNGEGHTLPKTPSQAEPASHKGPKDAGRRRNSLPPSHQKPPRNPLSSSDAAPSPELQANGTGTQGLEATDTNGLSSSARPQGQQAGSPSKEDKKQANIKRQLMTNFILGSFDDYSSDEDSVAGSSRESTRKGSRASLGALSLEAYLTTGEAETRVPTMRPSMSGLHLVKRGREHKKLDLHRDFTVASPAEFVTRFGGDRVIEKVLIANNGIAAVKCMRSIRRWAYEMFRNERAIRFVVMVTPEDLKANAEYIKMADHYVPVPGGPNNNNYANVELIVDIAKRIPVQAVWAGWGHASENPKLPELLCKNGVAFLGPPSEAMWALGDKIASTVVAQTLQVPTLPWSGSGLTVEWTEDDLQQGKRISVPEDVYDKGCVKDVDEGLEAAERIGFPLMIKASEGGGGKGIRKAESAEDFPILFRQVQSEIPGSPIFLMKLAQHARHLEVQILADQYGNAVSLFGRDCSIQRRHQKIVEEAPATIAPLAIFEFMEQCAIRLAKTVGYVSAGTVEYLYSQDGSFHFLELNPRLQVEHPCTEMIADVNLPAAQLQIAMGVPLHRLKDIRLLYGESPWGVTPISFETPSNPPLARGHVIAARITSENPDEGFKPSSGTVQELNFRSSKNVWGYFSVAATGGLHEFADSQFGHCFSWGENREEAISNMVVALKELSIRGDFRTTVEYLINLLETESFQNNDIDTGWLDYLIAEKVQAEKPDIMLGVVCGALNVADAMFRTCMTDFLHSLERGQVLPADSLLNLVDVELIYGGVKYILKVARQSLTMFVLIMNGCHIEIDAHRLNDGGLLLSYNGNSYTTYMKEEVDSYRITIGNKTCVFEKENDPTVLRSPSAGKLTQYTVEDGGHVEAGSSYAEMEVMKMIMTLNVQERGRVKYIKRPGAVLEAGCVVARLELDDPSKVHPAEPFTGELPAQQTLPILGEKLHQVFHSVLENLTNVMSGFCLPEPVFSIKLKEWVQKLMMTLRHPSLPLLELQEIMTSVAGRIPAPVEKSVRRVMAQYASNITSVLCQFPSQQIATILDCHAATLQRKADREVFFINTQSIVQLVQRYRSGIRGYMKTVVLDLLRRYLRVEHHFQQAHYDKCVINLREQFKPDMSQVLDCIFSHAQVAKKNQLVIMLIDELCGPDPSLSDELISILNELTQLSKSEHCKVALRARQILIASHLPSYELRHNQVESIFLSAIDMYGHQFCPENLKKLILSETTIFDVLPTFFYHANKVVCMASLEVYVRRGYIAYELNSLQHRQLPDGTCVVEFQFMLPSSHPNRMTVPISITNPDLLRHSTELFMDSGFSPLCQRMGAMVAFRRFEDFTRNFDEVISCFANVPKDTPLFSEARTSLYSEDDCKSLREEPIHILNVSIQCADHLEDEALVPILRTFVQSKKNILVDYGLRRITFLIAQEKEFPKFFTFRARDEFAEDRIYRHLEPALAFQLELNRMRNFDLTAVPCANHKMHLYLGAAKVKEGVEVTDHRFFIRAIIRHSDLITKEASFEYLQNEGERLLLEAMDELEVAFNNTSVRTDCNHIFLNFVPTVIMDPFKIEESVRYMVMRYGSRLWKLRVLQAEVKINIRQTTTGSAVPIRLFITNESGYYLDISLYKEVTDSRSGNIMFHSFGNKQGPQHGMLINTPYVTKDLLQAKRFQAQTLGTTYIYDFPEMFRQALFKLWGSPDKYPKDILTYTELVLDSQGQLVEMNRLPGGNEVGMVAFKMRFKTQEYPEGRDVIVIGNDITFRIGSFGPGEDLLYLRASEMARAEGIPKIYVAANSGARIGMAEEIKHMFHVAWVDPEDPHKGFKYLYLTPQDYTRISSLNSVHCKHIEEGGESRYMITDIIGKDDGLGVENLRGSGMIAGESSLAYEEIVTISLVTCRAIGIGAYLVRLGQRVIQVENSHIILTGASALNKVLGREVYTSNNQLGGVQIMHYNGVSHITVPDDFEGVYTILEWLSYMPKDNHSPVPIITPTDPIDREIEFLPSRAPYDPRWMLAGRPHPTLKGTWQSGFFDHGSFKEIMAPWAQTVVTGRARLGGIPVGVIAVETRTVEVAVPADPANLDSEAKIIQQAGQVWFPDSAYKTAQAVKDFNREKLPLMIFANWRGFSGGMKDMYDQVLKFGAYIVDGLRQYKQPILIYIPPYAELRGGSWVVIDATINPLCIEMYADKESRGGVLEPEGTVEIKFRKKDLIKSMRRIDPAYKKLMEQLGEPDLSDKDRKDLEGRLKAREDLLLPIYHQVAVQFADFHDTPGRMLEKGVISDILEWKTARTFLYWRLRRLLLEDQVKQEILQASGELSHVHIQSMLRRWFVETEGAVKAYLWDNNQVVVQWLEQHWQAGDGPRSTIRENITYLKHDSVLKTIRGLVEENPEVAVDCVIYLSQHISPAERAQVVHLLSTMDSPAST
Chain of fungal (fACC2) (Q00955 whole entry): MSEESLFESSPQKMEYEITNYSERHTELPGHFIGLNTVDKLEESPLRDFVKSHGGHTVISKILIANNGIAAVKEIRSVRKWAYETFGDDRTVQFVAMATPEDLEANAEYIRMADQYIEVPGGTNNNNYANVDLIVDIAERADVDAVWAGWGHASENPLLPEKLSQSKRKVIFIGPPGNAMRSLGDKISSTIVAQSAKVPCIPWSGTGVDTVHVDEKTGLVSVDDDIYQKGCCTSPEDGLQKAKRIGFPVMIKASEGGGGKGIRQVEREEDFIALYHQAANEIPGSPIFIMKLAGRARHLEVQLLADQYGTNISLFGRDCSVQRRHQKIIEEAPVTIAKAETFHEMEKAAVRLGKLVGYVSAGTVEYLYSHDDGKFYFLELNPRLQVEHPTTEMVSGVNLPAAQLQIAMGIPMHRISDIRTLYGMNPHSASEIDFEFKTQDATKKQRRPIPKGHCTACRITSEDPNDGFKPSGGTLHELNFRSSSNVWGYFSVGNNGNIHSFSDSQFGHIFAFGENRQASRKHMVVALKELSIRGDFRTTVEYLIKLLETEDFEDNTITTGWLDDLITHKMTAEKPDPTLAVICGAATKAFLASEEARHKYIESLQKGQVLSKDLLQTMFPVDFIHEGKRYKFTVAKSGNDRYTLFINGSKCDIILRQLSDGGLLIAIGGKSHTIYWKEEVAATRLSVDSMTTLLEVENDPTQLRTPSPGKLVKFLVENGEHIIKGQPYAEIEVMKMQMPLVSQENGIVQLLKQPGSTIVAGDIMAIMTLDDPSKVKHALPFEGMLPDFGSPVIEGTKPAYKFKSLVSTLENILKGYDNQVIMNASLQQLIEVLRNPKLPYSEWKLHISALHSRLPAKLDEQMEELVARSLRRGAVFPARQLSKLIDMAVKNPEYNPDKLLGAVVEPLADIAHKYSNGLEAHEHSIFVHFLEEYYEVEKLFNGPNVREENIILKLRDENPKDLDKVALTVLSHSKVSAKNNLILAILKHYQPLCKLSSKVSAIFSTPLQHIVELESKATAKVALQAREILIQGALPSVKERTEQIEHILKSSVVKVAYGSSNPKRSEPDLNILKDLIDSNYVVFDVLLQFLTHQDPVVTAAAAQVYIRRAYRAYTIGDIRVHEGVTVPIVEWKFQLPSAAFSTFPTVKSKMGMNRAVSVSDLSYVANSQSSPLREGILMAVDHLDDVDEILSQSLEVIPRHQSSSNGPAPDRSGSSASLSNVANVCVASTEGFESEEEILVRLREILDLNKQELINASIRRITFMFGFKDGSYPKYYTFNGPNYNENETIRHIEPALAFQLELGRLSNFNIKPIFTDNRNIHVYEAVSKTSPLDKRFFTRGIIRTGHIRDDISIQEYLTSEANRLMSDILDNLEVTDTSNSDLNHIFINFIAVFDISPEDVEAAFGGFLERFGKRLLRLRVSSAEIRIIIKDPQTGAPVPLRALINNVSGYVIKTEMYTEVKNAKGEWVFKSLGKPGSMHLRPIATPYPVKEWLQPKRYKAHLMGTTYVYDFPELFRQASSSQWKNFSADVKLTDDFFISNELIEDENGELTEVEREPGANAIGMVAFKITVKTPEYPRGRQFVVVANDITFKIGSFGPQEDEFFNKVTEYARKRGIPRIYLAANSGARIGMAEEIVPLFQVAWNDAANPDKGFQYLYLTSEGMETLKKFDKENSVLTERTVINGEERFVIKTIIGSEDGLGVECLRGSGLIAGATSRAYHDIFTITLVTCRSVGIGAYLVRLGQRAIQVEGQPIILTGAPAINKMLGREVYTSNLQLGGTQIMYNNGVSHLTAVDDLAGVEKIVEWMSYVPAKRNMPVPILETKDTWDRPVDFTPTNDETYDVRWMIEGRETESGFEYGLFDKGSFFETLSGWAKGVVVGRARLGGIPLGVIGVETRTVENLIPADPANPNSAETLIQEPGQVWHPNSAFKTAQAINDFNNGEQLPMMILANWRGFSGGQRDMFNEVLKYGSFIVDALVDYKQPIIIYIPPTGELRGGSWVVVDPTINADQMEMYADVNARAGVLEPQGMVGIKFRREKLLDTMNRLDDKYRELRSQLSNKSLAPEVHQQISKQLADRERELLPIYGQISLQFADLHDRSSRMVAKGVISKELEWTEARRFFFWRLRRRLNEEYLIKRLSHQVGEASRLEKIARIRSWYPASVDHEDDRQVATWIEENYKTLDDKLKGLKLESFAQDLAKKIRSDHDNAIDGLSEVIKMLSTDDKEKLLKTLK

SMILES	IC50 ([1]; Table 2a) [nM]	IC50 ([1]; Table 2b, additional results) [nM]	MIC [2, 11] [µg/mL]	MIC [2, 12] [µg/mL]	IC50 ([10]; Table 2a) [nM]	IC50 ([10]; Table 2b, additional results) [nM]	MIC [2, 27] [µg/mL]	MIC [3, 28] [µg/mL]	IC90 [4, 29] [µg/mL]	IC90 [4, 30] [µg/mL]	Concentration at 90% Inhibition Fm [5, 17]	IC90 [5] [µg/mL]	IC90 [6, 31] [µg/mL]	IC90 [6, 32] [µg/mL]	IC90 [7, 33] [µg/mL]	IC90 [7, 34] [µg/mL]	IC90 [8, 35] [µg/mL]	IC90 [8, 36] [µg/mL]	IC90 [9, 37] [µg/mL]	IC90 [9, 38] [µg/mL]	further results
COc1ccc(F)cc1[C@H](Cn1c(=O)n(C(C)(C)C(=O)N2CC=CC2)c(=O)c2c(C)c(-n3nccn3)sc21)OC(C)C [Compound I-51, (R)-3-(1-(2,5-dihydro-1H-pyrrol-1-yl)-2-methyl-1-oxopropan-2-yl)-1-(2-(5-fluoro-2-methoxyphenyl)-2-isopropoxyethyl)-5-methyl-6-(2H-1,2,3-triazol-2-yl)thieno[2,3-d]pyrimidine-2,4(1H,3H)-dione]	5 to 10	5 to 10	0.25 to 1 (≈ 0.419 to 1.68 µM)	0.25 to 1 (≈ 0.419 to 1.68 µM)	1 to 5	1 to 5	–	–	–	–	–	–	–	–	–	–	–	–	–	–	MIC [3, 13]: 1.1 to 2 µg/mL (≈ 1.84 to 3.35 µM); MIC [3, 14]: > 4.01 µg/mL; IC90 [4, 15]: 0.08 µg/mL (≈ 0.134 µM); IC90 [4, 16]: 0.08 µg/mL (≈ 0.134 µM); IC90 [5, 17]: 0.08 µg/mL (≈ 0.134 µM); IC90 [5, 18]: 0.08 µg/mL (≈ 0.134 µM); IC90 [6, 19]: 0.4 µg/mL (≈ 0.67 µM); IC90 [6, 20]: 0.4 µg/mL (≈ 0.67 µM); IC90 [7, 21]: > 50 µg/mL; IC90 [7, 22]: > 50 µg/mL; IC90 [8, 23]: 0.4 µg/mL (≈ 0.67 µM); IC90 [8, 24]: 0.4 µg/mL (≈ 0.67 µM); IC90 [9, 25]: 2 µg/mL (≈ 3.35 µM); IC90 [9, 26]: 10 µg/mL (≈ 16.8 µM)
COc1ccc(F)cc1[C@H](Cn1c(=O)n(C(C)(C)C(=O)NC2CC2)c(=O)c2c(C)c(-n3nccn3)sc21)OC(C)C [Compound I-73, (R)—N-cyclopropyl-2-(1-(2-(5-fluoro-2-methoxyphenyl)-2-isopropoxyethyl)-5-methyl-2,4-dioxo-6-(2H-1,2,3-triazol-2-yl)-1,4-dihydrothieno[2,3-d]pyrimidin-3(2H)-yl)-2-methylpropanamide]	5 to 10	5 to 10	0.25 to 1 (≈ 0.428 to 1.71 µM)	0.06 to 0.249 (≈ 0.103 to 0.426 µM)	1 to 5	1 to 5	–	–	–	–	–	–	–	–	–	–	–	–	–	–	MIC [3, 13]: 0.25 to 1 µg/mL (≈ 0.428 to 1.71 µM); MIC [3, 14]: 1.01 to 2 µg/mL (≈ 1.73 to 3.42 µM); IC90 [4, 15]: 2 µg/mL (≈ 3.42 µM); IC90 [4, 16]: 2 µg/mL (≈ 3.42 µM); IC90 [5, 17]: 0.08 µg/mL (≈ 0.137 µM); IC90 [5, 18]: 0.08 µg/mL (≈ 0.137 µM); IC90 [6, 19]: 0.4 µg/mL (≈ 0.684 µM); IC90 [6, 20]: 0.4 µg/mL (≈ 0.684 µM); IC90 [7, 21]: > 50 µg/mL; IC90 [7, 22]: > 50 µg/mL; IC90 [8, 23]: 0.4 µg/mL (≈ 0.684 µM); IC90 [8, 24]: 0.4 µg/mL (≈ 0.684 µM); IC90 [9, 25]: > 50 µg/mL; IC90 [9, 26]: > 50 µg/mL
COCCCO[C@@H](Cn1c(=O)n(C(C)(C)C(=O)NC(C)C)c(=O)c2c(C)c(-n3nccn3)sc21)c1cc(F)ccc1OC [Compound I-69, (R)-2-(1-(2-(5-fluoro-2-methoxyphenyl)-2-(3-methoxy-propoxy)ethyl)-5-methyl-2,4-dioxo-6-(2H-1,2,3-triazol-2-yl)-1,4-dihydrothieno[2,3-d]pyrimidin-3(2H)-yl)-N-isopropyl-2-methylpropanamide]	5 to 10	5 to 10	–	–	0.4 to 1	0.3 to 1	0.25 to 1 (≈ 0.405 to 1.62 µM)	0.25 to 1 (≈ 0.405 to 1.62 µM)	0.4 (≈ 0.649 µM)	0.4 (≈ 0.649 µM)	AA (compound concentration of 0.08 ppm at 90% inhibition of fungal pathogens)	0.08 (≈ 0.13 µM)	0.08 (≈ 0.13 µM)	0.08 (≈ 0.13 µM)	> 50	> 50	0.4 (≈ 0.649 µM)	0.4 (≈ 0.649 µM)	10 (≈ 16.2 µM)	> 50	–
COc1ccc(F)cc1[C@H](Cn1c(=O)n(C(C)(C)C(=O)NC(C)C)c(=O)c2c(C)c(-n3nccn3)sc21)OC[C@H](C)O [Compound I-47, 2-(1-((R)-2-(5-fluoro-2-methoxyphenyl)-2-((S)-2-hydroxypropoxy)ethyl)-5-methyl-2,4-dioxo-6-(2H-1,2,3-triazol-2-yl)-1,4-dihydro-thieno[2,3-d]pyrimidin-3(2H)-yl)-N-isopropyl-2-methylpropanamide]	10 to 40	10 to 40	–	–	1 to 5	1 to 5	1.01 to 2 (≈ 1.68 to 3.32 µM)	1.01 to 2 (≈ 1.68 to 3.32 µM)	0.4 (≈ 0.664 µM)	0.4 (≈ 0.664 µM)	AA (compound concentration of 0.08 ppm at 90% inhibition of fungal pathogens)	0.08 (≈ 0.133 µM)	0.4 (≈ 0.664 µM)	0.4 (≈ 0.664 µM)	> 50	> 50	0.4 (≈ 0.664 µM)	0.4 (≈ 0.664 µM)	10 (≈ 16.6 µM)	> 50	MIC [2, 39]: 0.06 to 0.24 µg/mL (≈ 0.0996 to 0.398 µM); MIC [3, 40]: 0.25 to 1 µg/mL (≈ 0.415 to 1.66 µM)
COc1ccc(F)cc1[C@H](Cn1c(=O)n([C@H](C)C(=O)NC(C)C)c(=O)c2c(C)c(-n3nccn3)sc21)OCCO [Compound I-89, (R)-2-(1-((R)-2-(5-fluoro-2-methoxyphenyl)-2-(2-hydroxy-ethoxy)ethyl)-5-methyl-2,4-dioxo-6-(2H-1,2,3-triazol-2-yl)-1,4-dihydrothieno[2,3-d]pyrimidin-3(2H)-yl)-N-isopropylpropanamide]	10 to 40	5 to 10	–	–	1 to 5	1 to 5	1.01 to 2 (≈ 1.76 to 3.48 µM)	1.01 to 2 (≈ 1.76 to 3.48 µM)	> 50	> 50	AA (compound concentration of 0.08 ppm at 90% inhibition of fungal pathogens)	0.08 (≈ 0.139 µM)	2 (≈ 3.48 µM)	2 (≈ 3.48 µM)	> 50	> 50	2 (≈ 3.48 µM)	2 (≈ 3.48 µM)	> 50	> 50	MIC [2, 39]: 2.1 to 4 µg/mL (≈ 3.65 to 6.96 µM); MIC [3, 40]: 2.1 to 4 µg/mL (≈ 3.65 to 6.96 µM)
